Laboratory results as given in patent US12377104B1, “Methods for treating a fatty liver disease” (Madrigal Pharmaceuticals, Inc., priority 2024, dated 2025).
“And” between values parts separate entries of the source, which are not always exact repeats. Equal entries are not always repeated.

Tested on: adults with biopsy-confirmed NASH
Experiment: MAESTRO-NASH: lipids, lipoproteins and lipid particles
Format: in vivo, human
Conditions: 80 mg; for ApoB, Least Squares Mean % CFB / ApoB, Least Squares Mean % CFB Difference from PBO / LDL-C, Least Squares Mean % CFB / LDL-C, Least Squares Mean % CFB Difference from PBO: baseline LDL-C >100 mg/dL; for Lp(a), LS mean % CFB / Lp(a), LS mean % CFB difference from PBO: baseline Lp(a) >10 nmol/L; for Triglycerides, LS mean % CFB / Triglycerides, LS mean % CFB difference from PBO: baseline triglycerides >150 mg/dL
Protocol: Within the study, we provided analyses based on an analysis of covariance (ANCOVA) model after having performed single imputation for LDL-C as described in the statistical analysis plan (SAP). The ANCOVA model estimated least-squares means using treatment and baseline LDL-C as covariate.
To this end, the Week 24 LDL-C assessment and assessments at any visit in which LDL-C is measured (Weeks 4, 12, 16, 20, 24, 28, 32, 36, 40, 44, 48, and 52) that has been impacted by kit shortage at the prior visit (unavailability of […] (IP) during the 4 weeks preceding the visit due to the COVID-19 pandemic as indicated on the electronic case report form (eCRF)), were considered missing and were imputed from an unaffected assessment at surrounding visits or using data from subjects unaffected by this intercurrent event as described in Section 11.2 of the SAP. In summary, single imputation utilizing adjacent and valid […] measurements were imputed.
For missing lipid data that are still missing after the single imputation approach described, those missing lipid data were imputed using the non-missing lipid values (including the singly imputed data) based on missing at random (MAR)-based (MI). When applying the MAR-based […], data were imputed separately by randomized treatment group and baseline stratification factors.

Compound: CC(C)c1cc(Oc2c(Cl)cc(-n3nc(C#N)c(=O)[nH]c3=O)cc2Cl)n[nH]c1=O [Resmetirom, 2-(3,5-dichloro-4-((5-isopropyl-6-oxo-1,6-dihydropyridazin-3-yl)oxy)phenyl)-3,5-dioxo-2,3,4,5-tetrahydro-1,2,4-triazine-6-carbonitrile]
- Apolipoprotein B level, difference from placebo (wk 24): −17.2 percentage points
- Apolipoprotein B level, least-squares mean percent change from baseline (wk 24): −16.8 ± 1.3%
- LDL cholesterol level, difference from placebo (wk 24): −13.7 percentage points
- LDL cholesterol level, least-squares mean percent change from baseline (wk 24): −13.6% and −13.6 ± 1.7%
- Lipoprotein(a) level, difference from placebo (wk 24): −29.5 percentage points
- Triglyceride level, difference from placebo (wk 24): −20.1 percentage points
- Lipoprotein(a) level, least-squares mean percent change from baseline (wk 24, baseline lipoprotein(a) >10 nmol per liter): −30.4 ± 3.8%
- Triglyceride level, least-squares mean percent change from baseline (wk 24, baseline triglyceride >150 mg per deciliter): −22.7 ± 4.0%
- ApoB, LS mean % CFB (Week 24): −16.8%
- ApoB, LS mean % CFB difference from PBO (Week 24): −17.2%
- ApoCIII, Least Squares Mean % CFB (Week 24): −10.6%
- ApoCIII, Least Squares Mean % CFB Difference from PBO (Week 24): −18.7%
- HDL-C, Least Squares Mean % CFB (Week 24): 2.7%
- HDL-C, Least Squares Mean % CFB Difference from PBO (Week 24): 0.98%
- LDL-C, LS mean % CFB (Week 24): −13.6%
- LDL-C, LS mean % CFB difference from PBO (Week 24): −13.7%
- Non-HDL-C, Least Squares Mean % CFB (Week 24): −15.2%
- Non-HDL-C, Least Squares Mean % CFB Difference from PBO (Week 24): −15.4%
- ApoB, Least Squares Mean % CFB (Week 24): −21.9%
- ApoB, Least Squares Mean % CFB Difference from PBO (Week 24): −18.1%
- LDL-C, Least Squares Mean % CFB (Week 24): −21.3%
- LDL-C, Least Squares Mean % CFB Difference from PBO (Week 24): −15.4%
- ApoCIII, Least Squares Mean % CFB (Week 52): −10.0%
- ApoCIII, Least Squares Mean % CFB Difference from PBO (Week 52): −19.8%
- HDL particle size, Least Squares Mean % CFB (Week 52): 0.90%
- HDL particle size, Least Squares Mean % CFB Difference from PBO (Week 52): 0.60%
- HDL particles, Least Squares Mean % CFB (Week 52): 5.2%
- HDL particles, Least Squares Mean % CFB Difference from PBO (Week 52): 3.6%
- HDL-C, Least Squares Mean % CFB (Week 52): 4.7%
- HDL-C, Least Squares Mean % CFB Difference from PBO (Week 52): 2.1%
- LDL particle size, Least Squares Mean % CFB (Week 52): −0.32%
- LDL particle size, Least Squares Mean % CFB Difference from PBO (Week 52): −0.36%
- LDL particles, Least Squares Mean % CFB (Week 52): −16.8%
- LDL particles, Least Squares Mean % CFB Difference from PBO (Week 52): −16.1%
- Large HDL particles, Least Squares Mean % CFB (Week 52): 12.3%
- Large HDL particles, Least Squares Mean % CFB Difference from PBO (Week 52): 0.06%
- Large LDL particles, Least Squares Mean % CFB (Week 52): 47.8%
- Large LDL particles, Least Squares Mean % CFB Difference from PBO (Week 52): −38.6%
- Large VLDL and chylomicron particles, Least Squares Mean % CFB (Week 52): −5.7%
- Large VLDL and chylomicron particles, Least Squares Mean % CFB Difference from PBO (Week 52): −16.8%
- Medium HDL particles, Least Squares Mean % CFB (Week 52): 88.2%
- Medium HDL particles, Least Squares Mean % CFB Difference from PBO (Week 52): 23.1%
- Medium VLDL particles, Least Squares Mean % CFB (Week 52): −18.7%
- Medium VLDL particles, Least Squares Mean % CFB Difference from PBO (Week 52): −134.5%
- Non-HDL-C, Least Squares Mean % CFB (Week 52): −15.7%
- Non-HDL-C, Least Squares Mean % CFB Difference from PBO (Week 52): −15.3%
- Small LDL particles, Least Squares Mean % CFB (Week 52): −3.3%
- Small LDL particles, Least Squares Mean % CFB Difference from PBO (Week 52): −25.0%
- Small VLDL particles, Least Squares Mean % CFB (Week 52): 62.9%
- Small VLDL particles, Least Squares Mean % CFB Difference from PBO (Week 52): -21.3%
- VLDL and chylomicron particles, Least Squares Mean % CFB (Week 52): −11.2%
- VLDL and chylomicron particles, Least Squares Mean % CFB Difference from PBO (Week 52): −19.4%
- VLDL and chylomicron triglycerides, Least Squares Mean % CFB (Week 52): −14.7%
- VLDL and chylomicron triglycerides, Least Squares Mean % CFB Difference from PBO (Week 52): −19.6%
- VLDL particle size, Least Squares Mean % CFB (Week 52): 1.9%
- VLDL particle size, Least Squares Mean % CFB Difference from PBO (Week 52): −0.05%
- ApoB, Least Squares Mean % CFB (Week 52): −25.0%
- ApoB, Least Squares Mean % CFB Difference from PBO (Week 52): −18.5%
- LDL-C, Least Squares Mean % CFB (Week 52): −25.3%
- LDL-C, Least Squares Mean % CFB Difference from PBO (Week 52): −15.7%
- Lp(a), LS mean % CFB (week 24): 30.4%
- Lp(a), LS mean % CFB difference from PBO (week 24): -29.5%
- Triglycerides, LS mean % CFB (week 24): -22.7%
- Triglycerides, LS mean % CFB difference from PBO (week 24): −20.1%
- ApoB, LS mean % CFB (week 52): -16.2%
- ApoB, LS mean % CFB difference from PBO (week 52): −16.8%
- LDL-C, LS mean % CFB (week 52): -13.7%
- LDL-C, LS mean % CFB difference from PBO (week 52): −13.3%
- Lp(a), LS mean % CFB (week 52): −34.0%
- Lp(a), LS mean % CFB difference from PBO (week 52): −29.5%
- Triglycerides, LS mean % CFB (week 52): −22.5%
- Triglycerides, LS mean % CFB difference from PBO (week 52): −19.0%
